Bridge positions count the residues as written; N and C are the ends. Square brackets hold non-standard residues; d marks the D form. Peptide text beside a SMILES is read from it.
What was measured:
[1] = target: Kappa-type opioid receptor (Cavia porcellus, UniProt P41144); experiment: Displacement of [3H]nor-BNI from KOR in Dunkin Hartley guinea pig membranes by liquid scintillation counting method; assay type: cell membranes
[2] = target: Delta-type opioid receptor (Rattus norvegicus, UniProt P33533); experiment: Displacement of [3H][Ile5,6]deltorphin-2 from DOR in Wistar rat brain membranes by liquid scintillation counting method; assay type: cell membranes, Membrane
Mu-type opioid receptor = Mu-type opioid receptor (Rattus norvegicus, UniProt P33535); experiment: Displacement of [3H]DAMGO from MOR in Wistar rat brain membranes by liquid scintillation counting method; assay type: cell membranes, Membrane
Mu-type opioid receptor, sequence (P33535 whole entry): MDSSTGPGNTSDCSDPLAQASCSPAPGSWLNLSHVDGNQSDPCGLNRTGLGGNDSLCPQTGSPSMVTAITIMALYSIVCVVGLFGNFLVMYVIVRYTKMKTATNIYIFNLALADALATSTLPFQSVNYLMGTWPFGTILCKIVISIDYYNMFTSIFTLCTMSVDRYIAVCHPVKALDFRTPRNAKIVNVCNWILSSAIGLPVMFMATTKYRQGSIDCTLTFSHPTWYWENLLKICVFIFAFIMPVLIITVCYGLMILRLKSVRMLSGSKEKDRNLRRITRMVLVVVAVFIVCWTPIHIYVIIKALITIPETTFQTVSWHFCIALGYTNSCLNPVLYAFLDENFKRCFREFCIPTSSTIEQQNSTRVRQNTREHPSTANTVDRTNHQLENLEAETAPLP

Kappa-type opioid receptor, sequence (P41144 whole entry): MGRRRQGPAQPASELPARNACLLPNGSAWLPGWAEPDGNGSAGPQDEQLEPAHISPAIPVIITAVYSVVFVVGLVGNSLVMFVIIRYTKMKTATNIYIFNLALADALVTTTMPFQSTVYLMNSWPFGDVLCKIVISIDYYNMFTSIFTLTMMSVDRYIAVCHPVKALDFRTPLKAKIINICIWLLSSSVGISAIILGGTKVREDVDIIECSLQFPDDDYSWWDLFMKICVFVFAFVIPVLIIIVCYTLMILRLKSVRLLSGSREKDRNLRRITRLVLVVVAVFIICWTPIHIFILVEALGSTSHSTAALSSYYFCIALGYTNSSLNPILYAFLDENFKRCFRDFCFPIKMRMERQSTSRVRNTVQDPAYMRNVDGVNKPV
Delta-type opioid receptor, sequence (P33533 whole entry): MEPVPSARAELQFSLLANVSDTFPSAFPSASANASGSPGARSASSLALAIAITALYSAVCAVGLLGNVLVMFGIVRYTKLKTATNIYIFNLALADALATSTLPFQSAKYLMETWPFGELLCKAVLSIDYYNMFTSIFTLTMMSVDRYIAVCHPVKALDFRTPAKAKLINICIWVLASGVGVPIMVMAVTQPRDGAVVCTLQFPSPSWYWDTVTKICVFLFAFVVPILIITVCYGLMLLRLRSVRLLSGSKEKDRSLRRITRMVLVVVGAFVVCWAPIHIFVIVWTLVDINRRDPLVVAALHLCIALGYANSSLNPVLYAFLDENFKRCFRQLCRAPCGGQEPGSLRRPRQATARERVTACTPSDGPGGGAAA

| SMILES | IC50 [1] | IC50 [2] | IC50 (Mu-type opioid receptor) |
| --- | --- | --- | --- |
| Cc1cc(O)cc(C)c1C[C@H](N)C(=O)N[C@@H]1C[C@H]2CC[C@H](CC2)NC(=O)C[C@@H](C(N)=O)NC(=O)[C@H](Cc2ccccc2)NC(=O)[C@H](Cc2ccccc2)NC1=O | > 1000 nM | > 1000 nM | 0.04 nM |
| NC(=O)[C@@H]1CC(=O)N[C@H]2CC[C@H](CC2)C[C@@H](NC(=O)[C@@H](N)Cc2ccc(O)cc2)C(=O)N[C@@H](Cc2ccccc2)C(=O)N[C@@H](Cc2ccccc2)C(=O)N1 | – | > 1000 nM | 3.2 nM |
| NC(=O)[C@@H]1CC(=O)N[C@H]2CC[C@@H](CC2)C[C@@H](NC(=O)[C@@H](N)Cc2ccc(O)cc2)C(=O)N[C@@H](Cc2ccccc2)C(=O)N[C@@H](Cc2ccccc2)C(=O)N1 | – | 3.9 nM | 2.08 nM |
| Cc1cc(O)cc(C)c1C[C@H](N)C(=O)N[C@@H]1C[C@H]2CC[C@@H](CC2)NC(=O)C[C@@H](C(N)=O)NC(=O)[C@H](Cc2ccccc2)NC(=O)[C@H](Cc2ccccc2)NC1=O | 25 nM | 0.38 nM | 0.022 nM |
| NC(=O)[C@@H]1CC(=O)NCCCC[C@@H](NC(=O)[C@@H](N)Cc2ccc(O)cc2)C(=O)N[C@@H](Cc2ccccc2)C(=O)N[C@@H](Cc2ccccc2)C(=O)N1 (H-Y[dK]FFD-NH2; lactam 2-5) | 2.36 nM | – | – |

— ChEMBL document CHEMBL3352451, “Cyclic side-chain-linked opioid analogs utilizing cis- and trans-4-aminocyclohexyl-D-alanine” (Bioorg Med Chem, 2014)
